Experimental data from ChEMBL document CHEMBL6092160, “Discovery of novel third generation P-glycoprotein inhibitors bearing an azo moiety with MDR-reversing effect” (Eur J Med Chem, 2024).
Structures can show the parent of a compound that is named as a salt.

What was measured:
K562/A02 [1] = assay: Cytotoxicity against human K562/A02 cells over expressing P-gp at 20 uM incubated for 72 hrs by CCK-8 assay; format: toxicity, cell-based; conditions: k562/a02, 72 h
K562/A02 [2] = assay: Antiproliferative activity against human K562/A02 cells assessed as reduction in cell viability incubated for 72 hrs by CCK-8 assay; format: functional, cell-based; conditions: K562/A02, 72 h
K562/A02 [3] = assay: Reversal of multi-drug resistance in human K562/A02 cells assessed as decrease in adriamycin IC50 preincubated with compound followed by ADR addition for 48 hrs; format: functional, cell-based
[4] = target: T1, ATP-dependent translocase ABCB1 (Homo sapiens, UniProt P08183); assay: Induction of thermal stabilization of P-glycoprotein in human K562/A02 cells at 50 uM under 25 to 61 degreeC incubated for 1 hrs by CETSA based Western blot analysis; format: cell-based; conditions: k562/a02, 1 h
T1 sequence (P08183 whole entry): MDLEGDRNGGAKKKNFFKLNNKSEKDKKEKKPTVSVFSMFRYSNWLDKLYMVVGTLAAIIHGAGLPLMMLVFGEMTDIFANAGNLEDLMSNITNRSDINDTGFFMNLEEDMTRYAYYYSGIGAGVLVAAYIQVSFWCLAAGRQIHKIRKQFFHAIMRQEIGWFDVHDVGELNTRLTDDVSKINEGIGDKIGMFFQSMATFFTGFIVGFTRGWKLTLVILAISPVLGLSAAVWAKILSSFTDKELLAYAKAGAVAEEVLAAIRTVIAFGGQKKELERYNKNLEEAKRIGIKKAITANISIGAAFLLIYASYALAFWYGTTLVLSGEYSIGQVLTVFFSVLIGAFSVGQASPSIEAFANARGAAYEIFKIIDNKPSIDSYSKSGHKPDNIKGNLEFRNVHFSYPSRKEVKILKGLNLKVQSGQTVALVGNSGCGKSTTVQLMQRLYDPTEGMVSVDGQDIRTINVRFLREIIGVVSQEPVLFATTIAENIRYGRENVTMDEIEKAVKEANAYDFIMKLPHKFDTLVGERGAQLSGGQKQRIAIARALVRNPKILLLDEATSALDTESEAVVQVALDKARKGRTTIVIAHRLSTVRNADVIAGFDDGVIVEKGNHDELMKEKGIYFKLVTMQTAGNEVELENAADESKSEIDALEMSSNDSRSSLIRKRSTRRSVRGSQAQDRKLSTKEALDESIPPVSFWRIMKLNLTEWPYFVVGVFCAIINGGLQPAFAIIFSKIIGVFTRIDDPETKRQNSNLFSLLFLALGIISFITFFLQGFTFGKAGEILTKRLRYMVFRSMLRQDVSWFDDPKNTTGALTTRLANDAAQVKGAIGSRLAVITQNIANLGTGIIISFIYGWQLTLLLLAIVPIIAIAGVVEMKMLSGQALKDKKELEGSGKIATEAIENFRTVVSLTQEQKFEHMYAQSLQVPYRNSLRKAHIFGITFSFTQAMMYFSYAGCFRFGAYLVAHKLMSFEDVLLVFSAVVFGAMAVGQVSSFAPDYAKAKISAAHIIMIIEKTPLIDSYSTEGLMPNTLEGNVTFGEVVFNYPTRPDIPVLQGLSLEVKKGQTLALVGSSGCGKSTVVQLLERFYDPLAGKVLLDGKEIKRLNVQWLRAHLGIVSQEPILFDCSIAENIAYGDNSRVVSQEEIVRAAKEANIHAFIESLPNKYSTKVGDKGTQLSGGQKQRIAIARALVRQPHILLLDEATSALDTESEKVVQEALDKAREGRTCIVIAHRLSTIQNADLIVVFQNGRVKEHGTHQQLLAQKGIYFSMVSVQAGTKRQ

[5] = target: T1, ATP-dependent translocase ABCB1; assay: Inhibition of P-glycoprotein in human K562/A02 cells assessed as accumulation of rhodamine incubated for 4 hrs by flow cytometric analysis; format: cell-based; conditions: k562/a02, 4 h, at 0.5 to 8 µM, dose 0.5-8 µM
K562/A02 [6] = assay: Effect on P-glycoprotein expression at protein level in human K562/A02 cells at 0.5 to 8.0 uM incubated for 24 hrs by Western blot analysis; format: functional, cell-based; conditions: dose 0.5-8 µM
K562/A02 [7] = assay: Effect on P-glycoprotein expression at mRNA level in human K562/A02 cells at 0.5 to 8.0 uM by q-PCR analysis; format: functional, cell-based; conditions: dose 0.5-8 µM

SMILES | Activity (K562/A02 [1]) | further results
COc1cc2c(cc1OC)CN(CCc1ccc(/N=N/c3ccccc3NC(=O)c3ccc([N+](=O)[O-])cc3)cc1)CC2 | Non-toxic | 
COc1cc2c(cc1OC)CN(CCc1ccc(NC(=O)c3ccccc3/N=N/c3ccc(Cl)cc3)cc1)CC2 | Non-toxic | 
COc1cc2c(cc1OC)CN(CCc1ccc(/N=N/c3ccccc3NC(=O)c3ccccc3Cl)cc1)CC2 | Non-toxic | 
COc1cccc2c1C(=O)c1c(O)c3c(c(O)c1C2=O)C[C@@](O)(C(=O)CO)C[C@@H]3O[C@H]1C[C@H](N)[C@H](O)[C@H](C)O1 [DOXORUBICIN HYDROCHLORIDE] |  | IC50 (K562/A02 [2]): 2.16 µM
COc1cc2c(cc1OC)CN(CCc1ccc(NC(=O)c3ccccc3/N=N/c3ccc(C)cc3)cc1)CC2 | Non-toxic | 
COc1cccc(C(=O)Nc2ccccc2/N=N/c2ccc(CCN3CCc4cc(OC)c(OC)cc4C3)cc2)c1 | Non-toxic | 
COc1cc2c(cc1OC)CN(CCc1ccc(/N=N/c3ccccc3NC(=O)c3ccc(Cl)c(Cl)c3)cc1)CC2 | Non-toxic | 
COc1cc2c(cc1OC)CN(CCc1ccc(/N=N/c3ccccc3NC(=O)c3ccccc3[N+](=O)[O-])cc1)CC2 | Non-toxic | 
COc1ccc(C(=O)Nc2ccccc2/N=N/c2ccc(CCN3CCc4cc(OC)c(OC)cc4C3)cc2)cc1 | Non-toxic | 
COc1cc2c(cc1OC)CN(CCc1ccc(/N=N/c3ccccc3NC(=O)c3cccc([N+](=O)[O-])c3)cc1)CC2 | Non-toxic | 
COc1ccc(C(=O)Nc2ccccc2/N=N/c2ccc(CCN3CCc4cc(OC)c(OC)cc4C3)cc2)cc1OC | Non-toxic | 
COc1cc2c(cc1OC)CN(CCc1ccc(/N=N/c3ccccc3NC(=O)c3ccc(Cl)cc3)cc1)CC2 | Non-toxic | 
COc1cc2c(cc1OC)CN(CCc1ccc(/N=N/c3ccccc3NC(=O)c3cccc(Cl)c3)cc1)CC2 | Non-toxic | 
COc1cc2c(cc1OC)CN(CCc1ccc(/N=N/c3ccccc3NC(=O)c3ccc(C)c(C)c3)cc1)CC2 | Non-toxic | 
COc1cc2c(cc1OC)CN(CCc1ccc(NC(=O)c3ccccc3/N=N/c3ccccc3)cc1)CC2 | Non-toxic | 
COc1cc2c(cc1OC)CN(CCc1ccc(/N=N/c3ccccc3NC(=O)c3ccccc3)cc1)CC2 | Non-toxic | 
COc1cc2c(cc1OC)CN(CCc1ccc(NC(=O)c3ccccc3/N=N/c3cccc(Cl)c3)cc1)CC2 | Non-toxic | 
COc1cc2c(cc1OC)CN(CCc1ccc(/N=N/c3ccccc3NC(=O)c3ccc(F)c(F)c3)cc1)CC2 | Non-toxic | 
COc1ccc(C(=O)Nc2ccccc2C(=O)Nc2ccc(CCN3CCc4cc(OC)c(OC)cc4C3)cc2)cc1OC |  | EC50 (K562/A02 [3]): 0.0294 µM
COc1cc2c(cc1OC)CN(CCc1ccc(/N=N/c3ccccc3NC(=O)c3ccc(C)cc3)cc1)CC2 | Non-toxic | 
COc1cc2c(cc1OC)CN(CCc1ccc(/N=N/c3ccccc3NC(=O)c3ccccc3OC)cc1)CC2 | Non-toxic | Activity [4]: Active; EC50 (K562/A02 [3]): 0.12 µM; inhibition (INH) [5]: Dose-dependent-effect; Activity (K562/A02 [6]): Active; Little Effect Of Compound Observed; Activity (K562/A02 [7]): Active; Little Effect Of Compound Observed
COc1cc2c(cc1OC)CN(CCc1ccc(/N=N/c3ccccc3NC(=O)c3cc(OC)c(OC)c(OC)c3)cc1)CC2 | Non-toxic | 
COc1cc2c(cc1OC)CN(CCc1ccc(/N=N/c3ccccc3NC(=O)c3ccc(C(C)(C)C)cc3)cc1)CC2 | Non-toxic | 
COc1ccccc1/N=N/c1ccccc1C(=O)Nc1ccc(CCN2CCc3cc(OC)c(OC)cc3C2)cc1 | Non-toxic | 
